Assay results as given in patent US20250314636A1, “METHOD OF PREPARING AND EXPANDING A POPULATION OF IMMUNE CELLS FOR CANCER THERAPY, POTENCY ASSAY FOR TUMOR RECOGNITION, BIOLOGICAL VACCINE PREPARATION AND EPITOPETARGET FOR ANTIBODIES” (FUNDAÇÃO D. ANNA DE SOMMER CHAMPALIMAUD E DR. CARLOS MONTEZ …, priority 2022, published 2025).
Several values for one entry are separate records, joined by “and”; a condition that tells them apart may be missing. Identical values can stand only once. Entries after “also recorded” stand apart in the source; their conditions may differ. Each block holds one compound with its values, some of them ahead of it.

Experiments:
NRLP3 pathway = assay: Testing of the NRLP3 pathway: KRAS peptide recognition by TIL expanded with or without MCC950; format: cell-based, human; conditions: TIL expanded with cardiolipin in presence of MCC950 (10 uM/mL)
Description: The number of peptide targets recognized as well as the amount of IFN-γ in pg/10e^4 TIL/target/7 days was analyzed and compared in the cardiolipin-positive versus negative group testing with Human IFN-γ ELISA basic kit (HRP).
Since cardiolipin has been reported to activate the NRLP3 inflammasome, aliquots of these same TIL preparation were expanded and the absence or presence of the NRLP3 inhibitor (MCC950) was investigated.

TIL [1] = assay: Peptide recognition assay in TIL (IFN-γ ELISA / IL-17 in supernatant, 7 days); format: cell-based, human
Description: Peptides from tumor-associated antigens (TAAs), listed in Table 5 were placed at 1 ug/well in duplicates using anti-CD3 at 30 ng/mL as well as PHA at 5 μg/mL as positive controls.
The differences in TIL versus PBMCs can also be defined by peptide reactivity. 10e^4 TIL or 10e^4 PBMC/well were co-cultured with the peptides listed in Table 11 below for 7 days and the supernatants were tested for IFN-γ production.

[2] = tested on: human IgG in serum from patients with pancreatic cancer; assay: ELISA of serum IgG binding to MUC4 epitope PVTSLSSVSTGDTTP (OD 405 nm); conditions: sera from patient S1 and S15, dilutions 1:2 and 1:10
Text: The MUC4 peptide is targeted by human IgG in serum from patients with cancer. […] The epitope PVTSLSSVSTGDTTP was linked to an ELISA plate via a streptavidin-biotin scaffold and tested for IgG recognition in serum from different patients with pancreatic cancer. The optical density (OD) read at 405 nm wavelength was used to detect IgG binding in sera from patients showing that some individuals have a higher IgG concentration to this epitope as compared to other patients, some patients have no IgG reactivity at all showing that there is individual IgG reactivity to this distinct MUC4 epitopes. The anti-human IgG directed antibody A2064 clone GG-5 from Sigma-Aldrich coupled to Alkaline-Phosphatase was used to detect epitope reactivity. The assay layout and reactivity reading are shown in Tables 12 and 13 (layouts and ODs, respectively) below.
Sera from different patients with PDAC (labeled as S1-S15) were incubated with the target epitope at different dilutions in phosphate-buffered saline (PBS) (1:2 and 1:10) and reactivity was tested based on the OD reading.

PBMCs = assay: Percentage of γδ T-cells in healthy individuals PBMCs expanded in presence or absence of cardiolipin; format: cell-based, human
Description: PBMCs of healthy individuals expanded in the presence of cardiolipin without interleukins increased the frequency of γδ T-cells (Table 4).
(§1) TIL and PBMCs were analyzed using several DuraClone (Beckman Coulter) Panels, always with addition of the LIVE/DEAD™ Fixable Yellow Dead Cell Stain Kit: DuraClone IM T-cell Subsets tube adding LAG-3 BV650 and CD95 BV785 and Duraclone IM TCRs tube. Besides, another panel with commercially available antibodies were used, which included CD4 Pacific Blue, CD8 KromeOrange, CXCR3 BV650, CD95 BV785, CD103 FITC, CCR7 PE, CCR4 PE/Dazzle, TCR pan-γ/δ PC5.5, CCR6 PC-7, CCR9 Alexa Fluor 647, CD45RA AF700, CD3 APC-A750 and LIVE/DEAD™ Fixable Yellow Dead Cell Stain Kit. After 15 minutes incubation, T-cells and PBMCs were washed in PBS-2% FBS and acquired using a CytoFlex LX flow cytometer from Beckman Coulter. Analysis was performed using FlowJo software.

TIL [3] = assay: IFN-γ induction assay / cytokine production of TIL after anti-CD3 crosslinking, 24 h, 10e5 cells; format: cell-based, human; conditions: TIL with or without cardiolipin
Description: In table 3, TIL were seated in at 10e^5 cells/well in triplicates in medium containing IL-2/IL-7/IL-15+cardiolipin (medium) or in IL-2/IL-7/IL-15+cardiolipin plus anti-CD3-IgG1 at 30 ng/mL to crosslink the T-cell receptor.
Supernatants were harvested after 24 hours in order to test for maximal T-cell activation defined in 24 hrs./10e^5 cells for comparison. The delta between maximal stimulation (b) and constitutive cytokine production (A) is summarized in row “delta (B-A)”.
This assay is used to measure the IFN-γ production after anti-CD3 induced activation during 24 h in 10^5 cells.

[4] = tested on: PBMCs from healthy individuals; assay: Cardiolipin titration: IFN-γ and IL-17A production in PBMCs and whole blood; format: cell-based, human; conditions: 250 nM cardiolipin, PBMCs from healthy individuals stimulated with OKT3 (30 ng/mL)
TIL [5] = assay: Flow cytometric analysis of TIL and PBMC phenotype; format: cell-based, human
Description: Different phenotypes in TIL were observed, when using different tumor regions in the three-expansion step herein proposed.
γδ T-cells were negatively sorted using a commercial kit from Stem Cell. Purity of negatively sorted cells was tested by flow cytometry using the DURAclone panel IM TCRs.
as §1

TIL [6] = assay: Treg detection assay; format: cell-based, human; conditions: TIL with or without cardiolipin
Description: Briefly, cells were stained extracellularly with CD3 PE (clone UCHT-1, BD 555749), CD4 V450 (clone RPA-T4, BD 561838), CD8 APC-Cy7 (clone SK1, BD 557834), CD25 PE-Cy7 (clone 2A3, BD 335824), CD127 APC (clone R34.34, Beckman Coulter B42026) for 15 minutes in ice and then washed and permeabilized using Biolegend's True-Nuclear Transcription Factor Buffer Set according to manufacturer's instructions.
Cells were then stained intracellularly with FOXP3 Alexa488 antibody (clone 259D/C7, BD 560047) or an IgG1 isotype control Alexa 488 (BD 557702), and CD3 PE (clone UCHT-1, BD 555749). Tregs cells were identified by flow cytometry as CD3^+ CD4^+ CD25^high CD127^−FoxP3^+).

TIL [7] = assay: CD107a assay; format: cell-based, human; conditions: TIL with or without cardiolipin
Description: Briefly, positive control cells were stimulated with 1 μg/mL of PMA; non-stimulated cells served as the control and data were performed in triplicates. Both stimulated and non-stimulated cells were incubated with a protein transport inhibitor containing monensin (BD, 51-2092kz) and CD107a PE antibody (clone H4A3, BD 555801) for 2 hours. Then an extracellular staining was performed using CD3 PE-Cy7 (clone UCHT1, BD 563423), CD4 V450 (clone RPA-T4, BD 561838) and CD8 APC-Cy7 (clone SK1, BD 557834). Control cells are PBMCs that had been cultured for 48-72 hours in the presence of 300 IU/mL IL-2 and 50 IU/mL IL-15. The assay is considered as positive if the positive control cells (PMA stimulated) have at least 2× the SD of the triplicates of the negative control.

TIL [8] = assay: RNA sequencing, differential gene expression in TIL grown with and without cardiolipin; format: cell-based, human; conditions: TIL expanded with vs without cardiolipin, DESeq2 FDR <0.10
Description: RNA from TIL was isolated using the commercially available RNeasy Mini Kit (Qiagen) and sequencing was done using the Illumina NovaSeq 6000 system with 100 bp paired end read lengths. Adapters were removed.
Transcriptome sequencing data alignment was performed using STAR two-pass method to human genome build hg19. Duplicates were marked using the Picard's MarkDuplicates tool and reads were split using the GATK SplitNCigarReads tool and variants were called using Varscan2. STAR-Fusion was used to identify candidate fusion transcripts and its output was annotated using AGFusion.
RNA sequencing was performed in seven of TIL expansions (i.e. from seven individual patients) with or without cardiolipin and tested for differential gene expression (FIG. 15). Genes with extremely low counts across samples were removed because they provide little evidence for differential expression and may interfere with some of the statistical approximations used.

Compound: CC(C)(O)c1coc(S(=O)(=O)NC(=O)Nc2c3c(cc4c2CCC4)CCC3)c1 [MCC950]
tumor associated antigen (KRAS epitope) recognition in TIL (NRLP3 pathway): statistically reduces the function of cardiolipin; also recorded: reduces the tumor associated antigen recognition in TIL

IgG binding reactivity to the nominal MUC4 epitope [2]: strong IgG binding reactivity
Compound: PVTSLSSVSTGDTTP [MUC4-P3 [Mut][WT]]
Pancreatic TIL D1599 IFN-y (TIL [1]; Pancreatic TIL D1599): 0 pg/mL
Pancreatic TILD1599 IL 17 (TIL [1]; Pancreatic TIL D1599): 2 pg/mL

Compound: cardiolipin
frequency of γδ T-cells (PBMCs; PBMCs of healthy individuals expanded with cardiolipin without interleukins): increased
Percentage of γδ T-cells, w/CL (PBMCs; healthy individuals PBMCs, presence of cardiolipin, without interleukins, single donors, listed as CL): 10.5% and 9.32% and 26% and 10.9% and 22.9%
Percentage of γδ T-cells, w/CL, Average (PBMCs; healthy individuals PBMCs, presence of cardiolipin, average of donors): 15.92%
recognition of commonly shared tumor-associated antigens (KRAS, mesothelin) by TIL, IFN-γ production (TIL [1]; TIL expanded in cardiolipin): recognized a high number of KRAS as well as mesothelin targets
IFN-γ production in TIL (TIL [3]): no differences
IL-17 production in TIL (TIL [3]): no differences
production of IFN-γ [4]: favorable production of IFN-γ
T-cell maturation, activation, or exhaustion markers (TIL [5]; CD4+, CD8+, double-positive, double-negative or γδ+ TIL, with vs without cardiolipin): not observed
frequency of γδ TIL (TIL [5]; TIL expanded with IL-7, IL-15, IL-21 with vs without cardiolipin): increased
regulatory T-cells (Treg) in TIL (TIL [6]): no differences
CD107 induction in TIL (TIL [7]): no differences
CXCL9 gene expression (TIL [8]): over-expressed
CXCL10 gene expression (TIL [8]): over-expressed
KBTBD11 gene expression (TIL [8]): statistically reduced
